Measured values from patent publication US12459974B2, “Bicyclic peptide ligands specific for Nectin-4” (priority 2018, dated 2025).
*1 amine or outer side, *2 acyl side, *3 side chain or, on linkers, in order; H or OH if unused. Where a SMILES comes first, the peptide text is derived from it. Bridges are numbered along the chain shown (N, C = ends). Roman numbers before positions name the chains, in order. [ ]: non-standard residue; d: D form. The star is where a group is joined. ξ: configuration not given here. TATA = O=C(CC[*:1])N1CN(C(=O)CC[*:2])CN(C(=O)CC[*:3])C1; Dolaproine = CO[C@@H]([C@@H]1CCCN1)[C@@H](C)C(=O)O; X1 = CC[C@H](C)C(C(CC(=O)[*:2])OC)N(C)[*:1]; 1Nal = N[C@@H](Cc1cccc2ccccc12)C(=O)O; X3 = O=C(CCCC(=O)[*:2])NCCC(=O)[*:1]; PABC = O=C(OCc1ccc(N[*:1])cc1)[*:2]; Hyp = O=C(O)[C@@H]1C[C@@H](O)CN1; hArg = N=C(N)NCCCC[C@H](N)C(=O)O; Cit = NC(=O)NCCC[C@H](N)C(=O)O; X2 = CC(N*)[C@@H](O)c1ccccc1; ξNMeV = CNC(C(=O)O)C(C)C; ξV = CC(C)C(N)C(=O)O; Sar = CNCC(=O)O

Assays:
[1] = system: MDA-MB-468 xenograft; test: Example 4: in vivo efficacy in MDA-MB-468 xenograft (breast cancer model) in Balb/c nude mice; parameters: species or system Mus Musculus
[2] = system: HCT116 xenograft; test: Example 9.2: in vivo efficacy in HCT116 xenograft in Balb/c nude mice; parameters: species or system Mus Musculus; details: for TGI / Tumor volume (TV): day 14; for Tumor volume trace over time: 3 mpk, biw, iv, mean ± SEM

For `CC[C@H](C)C(C(CC(=O)N1CCC[C@H]1[C@H](OC)[C@@H](C)C(=O)NC(C)[C@@H](O)c1ccccc1)OC)N(C)C(=O)[C@@H](NC(=O)C(C(C)C)N(C)C(=O)OCc1ccc(NC(=O)[C@H](CCCNC(N)=O)NC(=O)C(NC(=O)CCCC(=O)NCCC(=O)N(C)CC(=O)N(C)CC(=O)N(C)CC(=O)N(C)CC(=O)N(C)CC(=O)N(C)CC(=O)N(C)CC(=O)N(C)CC(=O)N(C)CC(=O)N(C)CC(=O)N[C@H]2CSCCC(=O)N3CN4CN(C3)C(=O)CCSC[C@H](NC(=O)[C@@H](CC(=O)O)NC(=O)[C@H](Cc3cccc5ccccc35)NC(=O)[C@@H]3CCCN3C2=O)C(=O)N[C@@H](CCSC)C(=O)N[C@@H](CCCCNC(=N)N)C(=O)N[C@@H](CC(=O)O)C(=O)N[C@@H](Cc2c[nH]c3ccccc23)C(=O)N[C@@H](CO)C(=O)N[C@@H]([C@@H](C)O)C(=O)N2CCC[C@H]2C(=O)N2C[C@H](O)C[C@H]2C(=O)N[C@@H](Cc2c[nH]c3ccccc23)C(=O)N[C@H](C(N)=O)CSCCC4=O)C(C)C)cc1)C(C)C` (stereo partly drawn) [BCY8245, MMAE-PABC-Cit-Val-Glutaryl-BCY8234] (I: [Sar][Sar][Sar][Sar][Sar][Sar][Sar][Sar][Sar][Sar]CP[1Nal][dD]CM[hArg]DWSTP[Hyp]WC-NH2 / II: [ξV][Cit][PABC][ξNMeV]V[X1][Dolaproine]-X2; linker I:11-I:15-I:25 via TATA; linker I:N-II:N via X3), the TGI ([1]; 3 mg/kg biw, day 21) was 169.8%, the “Tumor volume (TV)” value ([1]; 3 mg/kg biw, day 21) was 22 mm^3 and the TGI ([1]; 3 mg/kg qw, day 21) was 144.2%. The “Tumor volume (TV)” value ([1]; 3 mg/kg qw, day 21) was 85 mm^3, the TGI ([1]; 5 mg/kg qw, day 21) was 168.4% and the “Tumor volume (TV)” value ([1]; 5 mg/kg qw, day 21) was 29 mm^3. For the same molecule, the Tumor volume ([1]; 3 mpk, biw, iv, day 0 after start of treatment) was 195 ± 33 mm^3, the Tumor volume ([1]; 3 mpk, biw, iv, day 2) was 193 ± 27 mm^3 and the Tumor volume ([1]; 3 mpk, biw, iv, day 4) was 154 ± 20 mm^3. For the same molecule, the Tumor volume ([1]; 3 mpk, biw, iv, day 7) was 103 ± 20 mm^3, the Tumor volume ([1]; 3 mpk, biw, iv, day 9) was 83 ± 16 mm^3 and the Tumor volume ([1]; 3 mpk, biw, iv, day 11) was 67 ± 14 mm^3. The Tumor volume ([1]; 3 mpk, biw, iv, day 14) was 49 ± 11 mm^3, the Tumor volume ([1]; 3 mpk, biw, iv, day 16) was 45 ± 14 mm^3 and the Tumor volume ([1]; 3 mpk, biw, iv, day 18) was 32 ± 12 mm^3. For the same molecule, the Tumor volume ([1]; 3 mpk, biw, iv, day 21) was 22 ± 4 mm^3, the T/C ([1]; 3 mpk, biw, day 21) was 4.9% and the TGI ([1]; 3 mpk, biw, day 21) was 169.8%. For the same molecule, the “Tumor volume” value ([1]; 3 mpk, biw, day 21, Mean ± SEM (Table 22)) was 22 ± 4 mm^3, the Tumor volume ([1]; 3 mpk, qw, iv, day 0 after start of treatment) was 194 ± 12 mm^3 and the Tumor volume ([1]; 3 mpk, qw, iv, day 2) was 192 ± 26 mm^3. It also gave a Tumor volume ([1]; 3 mpk, qw, iv, day 4) of 184 ± 20 mm^3, a Tumor volume ([1]; 3 mpk, qw, iv, day 7) of 131 ± 20 mm^3 and a Tumor volume ([1]; 3 mpk, qw, iv, day 9) of 113 ± 17 mm^3. It also gave a Tumor volume ([1]; 3 mpk, qw, iv, day 11) of 104 ± 13 mm^3, a Tumor volume ([1]; 3 mpk, qw, iv, day 14) of 94 ± 25 mm^3 and a Tumor volume ([1]; 3 mpk, qw, iv, day 16) of 81 ± 23 mm^3. The Tumor volume ([1]; 3 mpk, qw, iv, day 18) was 87 ± 23 mm^3, the Tumor volume ([1]; 3 mpk, qw, iv, day 21) was 85 ± 31 mm^3 and the T/C ([1]; 3 mpk, qw, day 21) was 18.9%. For the same molecule, the TGI ([1]; 3 mpk, qw, day 21) was 144.2%, the “Tumor volume” value ([1]; 3 mpk, qw, day 21, Mean ± SEM (Table 22)) was 85 ± 31 mm^3 and the Tumor volume ([1]; 5 mpk, qw, dosing suspended from day 21, day 23) was 35 ± 5 mm^3. For the same molecule, the Tumor volume ([1]; 5 mpk, qw, dosing suspended from day 21, day 25) was 48 ± 5 mm^3, the Tumor volume ([1]; 5 mpk, qw, dosing suspended from day 21, day 28) was 37 ± 7 mm^3 and the Tumor volume ([1]; 5 mpk, qw, dosing suspended from day 21, day 32) was 28 ± 6 mm^3. The Tumor volume ([1]; 5 mpk, qw, dosing suspended from day 21, day 35) was 24 ± 4 mm^3, the Tumor volume ([1]; 5 mpk, qw, dosing suspended from day 21, day 39) was 28 ± 6 mm^3 and the Tumor volume ([1]; 5 mpk, qw, dosing suspended from day 21, day 42) was 26 ± 6 mm^3. The Tumor volume ([1]; 5 mpk, qw, iv, day 0 after start of treatment) was 199 ± 28 mm^3, the Tumor volume ([1]; 5 mpk, qw, iv, day 2) was 193 ± 11 mm^3 and the Tumor volume ([1]; 5 mpk, qw, iv, day 4) was 135 ± 4 mm^3. For the same molecule, the Tumor volume ([1]; 5 mpk, qw, iv, day 7) was 98 ± 5 mm^3, the Tumor volume ([1]; 5 mpk, qw, iv, day 9) was 58 ± 5 mm^3 and the Tumor volume ([1]; 5 mpk, qw, iv, day 11) was 49 ± 5 mm^3. For the same molecule, the Tumor volume ([1]; 5 mpk, qw, iv, day 14) was 47 ± 2 mm^3, the Tumor volume ([1]; 5 mpk, qw, iv, day 16) was 37 ± 4 mm^3 and the Tumor volume ([1]; 5 mpk, qw, iv, day 18) was 35 ± 3 mm^3. It also gave a Tumor volume ([1]; 5 mpk, qw, iv, day 21) of 29 ± 3 mm^3, a T/C ([1]; 5 mpk, qw, day 21) of 6.6% and a TGI ([1]; 5 mpk, qw, day 21) of 168.4%. For the same molecule, the “Tumor volume” value ([1]; 5 mpk, qw, day 21, Mean ± SEM (Table 22)) was 29 ± 3 mm^3, the “anti-tumour activity (in words)” value ([1]; mouse, in vivo) was “good anti-tumour activity” and the TGI ([2]; 3 mg/kg biw) was 94.9%. The “Tumor volume (TV)” value ([2]; 3 mg/kg biw) was 197 mm^3, the TGI ([2]; 3 mg/kg qw) was 57.1% and the “Tumor volume (TV)” value ([2]; 3 mg/kg qw) was 425 mm^3. For the same molecule, the TGI ([2]; 5 mg/kg qw) was 105.2%, the “Tumor volume (TV)” value ([2]; 5 mg/kg qw) was 134 mm^3 and the “Tumor volume trace over time” value ([2]; day 0 after the start of treatment) was 166 ± 18 mm^3. The “Tumor volume trace over time” value ([2]; day 2 after the start of treatment) was 229 ± 40 mm^3, the “Tumor volume trace over time” value ([2]; day 4 after the start of treatment) was 215 ± 42 mm^3 and the “Tumor volume trace over time” value ([2]; day 7 after the start of treatment) was 213 ± 49 mm^3. For the same molecule, the “Tumor volume trace over time” value ([2]; day 9 after the start of treatment) was 213 ± 48 mm^3 and the “Tumor volume trace over time” value ([2]; day 12 after the start of treatment) was 206 ± 55 mm^3.
